Legend:
[1] = molecular target: T1, DPAGT1 (Homo sapiens, UniProt Q9H3H5); assay: DPAGT1 radiometric in vitro activity assay (end point, phosphorimaging of radio-TLC); type: biochemical; settings: for % Activity of DPAGT1 in the presence of a tunicamycin analogue compared to a negative control (GFB): Table S1, analogue 1 µM, DPAGT1 1 µM, dolichyl monophosphate 50 µM, UDP-GlcNAc(1-14C) 50 µM, 37 °C, 21 min, three biological replicates; for DPAGT1 inhibition (in words): inhibitor 1 µM, enzyme:inhibitor 1:1, substrates 50 µM
T1 construct: full-length DPAGT1 bearing an additional tobacco etch virus (TEV) protease-cleavable N-terminal His6 tag; His6 with TEV protease cleavage site ([…]/S leader) (N, cleaved yes); made in house; host or cells: Spodoptera frugiperda Sf9 insect cells (baculovirus, pFB-LIC-Bse vector)
T1 sequence (Q9H3H5 with tags, fused parts or gaps): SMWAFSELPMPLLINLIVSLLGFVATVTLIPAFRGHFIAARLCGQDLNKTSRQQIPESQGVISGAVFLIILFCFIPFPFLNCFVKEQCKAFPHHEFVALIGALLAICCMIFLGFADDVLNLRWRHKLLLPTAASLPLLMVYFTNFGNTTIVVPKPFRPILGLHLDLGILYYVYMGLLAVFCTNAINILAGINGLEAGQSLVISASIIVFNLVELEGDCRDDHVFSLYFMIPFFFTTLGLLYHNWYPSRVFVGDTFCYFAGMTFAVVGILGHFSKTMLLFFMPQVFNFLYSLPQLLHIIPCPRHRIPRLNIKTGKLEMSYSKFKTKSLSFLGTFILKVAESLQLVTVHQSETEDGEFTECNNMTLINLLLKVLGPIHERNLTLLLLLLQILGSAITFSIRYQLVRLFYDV
Description: Figure 2 Design, synthesis and in vitro inhibitory activity of lipid-altered tunicamycins. (A) Structure of DPAGT1 in complex with tunicamycin[21] showing key interactions primarily along TMH5 that in concert with a Trp122 “lid” create the lipid-engagement site (blue). This engagement contrasts with a small, gated pocket below bounded primarily by Leu293 in which only smaller moieties (here an acetamide) are accommodated (red). (B) Guided by this structure, as an apparent snapshot of a Michaelis complex-like mode of binding, modulation at two acyl sites in the core scaffold was explored. […] Semisynthesis allowed generation of graduated lipid tunicamycin analogues through regiochemical differentiation in carbamoylation to generate two key divergent intermediates: Tun-0E,0G and Tun-0E,2G. Subsequent differential acylations allow for generation of both symmetric and asymmetric Tun-XE,YG analogues. Reagents and conditions: (a) Ac2O, pyridine; (b) Boc2O, DMAP, THF; (c) NaOMe, MeOH; (d) 4 M HCl in dioxane, MeOH; (e) HATU, DIPEA, octanoic acid, DMF; (f) HATU, DIPEA, carboxylic acid; (g) HATU, DIPEA, 2 × carboxylic acid. (C) Residual % in vitro activity of DPAGT1 following incubation with analogues [DPAGT1 ([…]), MgCl2 (5 mM), Tun analogue ([…]), dolichol phosphate ([…]), and UDP-GlcNAc(1-^14C) ([…]) in 1% OGNG/CHS/cardiolipin] was assessed through end point assay at 37 °C via phosphorimaging. These were determined on the basis of three biological replicates, each using three technical replicates. Error bars shown are standard deviations.
The intended targeting and graduated modulation of DPAGT1’s PNPT activity was assessed in vitro using a highly pure recapitulated source. Briefly, full-length DPAGT1 bearing an additional tobacco etch virus (TEV) protease-cleavable N-terminal His6 tag was expressed using a baculovirus (DH10Bac)/insect cell (Spodoptera frugiperda Sf9) system using a pFB-LIC-Bse expression vector. DPAGT1 is an integral transmembrane enzyme, and thus, after harvesting and lysis, protein was extracted from the expression host membrane fraction using octyl glucose neopentyl glycol (OGNG) (1% w/v) and cholesterylhemisuccinate (CHS) (0.1% w/v) before isolation and purification by immobilized metal affinity chromatography (IMAC) using a Co^2+-charged (“TALON”) resin and elution with an imidazole gradient. To ensure that there were no confounding effects of the His6 tag, this was then cleaved with TEV protease followed by reverse IMAC and size exclusion chromatography in sequence.
Radiometric bisubstrate analyses allowed excellent sensitivity under the conditions necessary for proper recapitulation of the activity. Purified DPAGT1 (1 μM) was incubated with both substrates, dolichol monophosphate and radiolabeled UDP-N-acetyl-D-[1-^14C]glucosamine, at 50 μM, and the activity was determined directly by end point phosphor detection of product dolichol-PP-N-acetyl-D-[1-^14C]glucosamine formation.
MgCl2, 10 mM imidazole (pH 8.0), 200 mM NaCl , 2 mM TCEP (added fresh), 5% Glycerol, 0.18% OGNG, 0.01 8% CHS, 0.0036% cardiolipin) and the protein was eluted with WB supplemented with 250 mM imidazole (pH 8.0). The eluted protein was desalted using PD-10 columns (GE Healthcare) pre-equilibrated with gel filtration buffer (GFB: 20 mM HEPES (pH […]
cardiolipin). Desalted protein was subsequently treated with 10:1 TEV protease (w:w, protein:enzyme) overnight at 4 ° C. The TEV protease treated protein was separated from the 6-His-tagged enzymes and uncleaved DPAGT1 by incubation for 1 h with Talon resin (prepared as described above) at 4 °C for 1 h. The resin was collected in a column, the flowthrough collected and the protein sample was centrifuged at 21,500 rpm in a Beckman TA25.5 rotor for 10 min at 4 ° C. The supernatant was then concentrated to 0.5 mL using a 30 kDa cutoff PES concentrator (Corning), with mixing every 5 mins during concentration. The […]

[2] = molecular target: T2, DPAGT1 (Homo sapiens, UniProt Q9H3H5); assay: Heat-induced denaturation assay of DPAGT1 with bound ligand; type: binding; settings: heat-induced denaturation; DPAGT1 alone 51.7 ± 0.2 °C
T2 sequence (Q9H3H5 1-408): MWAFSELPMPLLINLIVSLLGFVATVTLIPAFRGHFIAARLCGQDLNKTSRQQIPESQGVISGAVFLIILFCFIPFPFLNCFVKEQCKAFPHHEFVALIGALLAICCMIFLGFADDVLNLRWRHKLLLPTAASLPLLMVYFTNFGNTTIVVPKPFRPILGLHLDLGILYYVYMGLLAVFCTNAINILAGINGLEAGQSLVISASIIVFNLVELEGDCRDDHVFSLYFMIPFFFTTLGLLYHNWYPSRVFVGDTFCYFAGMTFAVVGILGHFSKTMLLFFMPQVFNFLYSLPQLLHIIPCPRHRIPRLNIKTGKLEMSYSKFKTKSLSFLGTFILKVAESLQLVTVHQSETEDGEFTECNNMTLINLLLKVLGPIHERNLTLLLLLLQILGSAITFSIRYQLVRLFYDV
Description: The structure of DPAGT1 in complex with the archetypal scaffold natural product tunicamycin[21] […] Trp122 moves so as to use its indole moiety to hydrophobically provide a binding “cap” or “lid” over the proximal portion of the 10′-N lipid chain.

[3] = tested on: His-tagged IgG-Fc domain; assay: In cell glycoprotein inhibition assay (IgG-Fc expression, SDS-PAGE and Western blot); type: cell-based, human; settings: HEK293T cells, 3 days, analogue 10 µM down to 0.5 nM (Tun-8E,2G 300 µM down to 15 nM), Figure S13
[4] = tested on: ATF4; assay: ATF4 high-content imaging assay in primary human dermal fibroblasts; type: cell-based; settings: 6 h, Figures S8–S12
Protocol: A targeted panel of tunicamycin analogues was tested in the ATF4 High Content Imaging assay to assess their ER stress generating ability in a primary cell line. Normal adult human dermal fibroblasts (NHDF-Ad, Lonza) were plated in a 96-well Phenoplate (PerkinElmer) at a seeding density of 10,000 cells per well in fibroblast growth medium (containing fibroblast basal medium, 10% FBS, 0.1% insulin, 0.1% hFGF-B, 0.1% Gentamicin/Amphotericin) and incubated at 37°C, 5% CO2. Treatment with pre-diluted compounds was performed after 24 hrs with final concentrations ranging from 10 µM – 5 nM (final DMSO concentration was 0.3%). Low control (0.3% DMSO final conc.) and high control (0.3 µM tunicamycin final conc.) wells were again included for assay normalization. Treated cells were incubated for 6 hrs at 37°C, 5% CO2 before fixing (4% PFA in PBS, 20 min at room temperature followed by washing (3x) with PBS). Direct ATF4 immunofluorescence staining was then performed, whereby cells were treated with a Coralite Plus 488-conjugated ATF4 Polyclonal antibody (CL488-10835, Proteintech) in a 1:100 dilution of Perm-block buffer (10% FBS, 0.3% TritonX-100 in PBS) for 2 hrs. Nuclei staining was then performed with DRAQ5 dye (ab108410, Abcam) at 1:1000 in PBS. Plates were imaged on a Leica SP8 confocal microscope equipped with 488 nm and 633 nm excitation and images were analysed using script-based algorithms as described for HEK cells above. […]

Compound | % Activity of DPAGT1 in the presence of a tunicamycin analogue compared to a negative control (GFB) [1] | DPAGT1 inhibition (in words) [1] | Tm,1/2 of DPAGT1 bound to ligand [2] | glycosylation state of expressed IgG-Fc (in words) [3] | increase in ATF4 (in words) [4]
CCCCCCCCC(=O)N[C@H]1[C@@H](O[C@@H]2O[C@H](C[C@@H](O)[C@H]3O[C@@H](n4ccc(=O)[nH]c4=O)[C@H](O)[C@@H]3O)[C@H](O)[C@H](O)[C@H]2NC(=O)CC(C)C)O[C@H](CO)[C@@H](O)[C@@H]1O [Tun-i5E,9G] | 90.7% | little to no significant inhibition | – | – | –
dolichol-1-phosphate [Dol-1-P] | – | – | 58.5 ± 0.3 °C | – | –
CCCCCCCCC(=O)N[C@H]1[C@H](O[C@H]2O[C@H](CO)[C@@H](O)[C@H](O)[C@H]2NC(=O)CCC)O[C@H](C[C@@H](O)[C@H]2O[C@@H](n3ccc(=O)[nH]c3=O)[C@H](O)[C@@H]2O)[C@H](O)[C@@H]1O [Tun-9E,4G] | 83.6% | did not cause a significant reduction in DPAGT1 activity | – | – | –
CCCCCCCC(=O)N[C@H]1[C@H](O[C@H]2O[C@H](CO)[C@@H](O)[C@H](O)[C@H]2NC(=O)CCCCCCC)O[C@H](C[C@@H](O)[C@H]2O[C@@H](n3ccc(=O)[nH]c3=O)[C@H](O)[C@@H]2O)[C@H](O)[C@@H]1O [Tun-8E,8G] | 90.0% | little to no significant inhibition | – | expression of intact glycosylated protein | only Tun itself leads to an increase in ATF4

Reference: publication PMC11758266, “Lipid-Modulated, Graduated Inhibition of N-Glycosylation Pathway Priming Suggests Wide Tolerance of ER Proteostasis to Stress” (ACS Central Science, 2024)
